The structures appear in SMILES notation. Like-named read-outs stand apart in the source and are kept apart here.

The test deals with sebum production in ear sebaceous glands of male Syrian hamsters. Briefly: Animal Model for Inhibition of Sebum Production (hamster ear, HPLC of sebum lipids). Type of test: in vivo, Syrian hamster. To be noted: Mesocricetus auratus, 672 h, 4 weeks; for inhibition in vivo at 3 %: 3% topical twice daily; for inhibition in vivo at 1 %: 1% topical twice daily; for inhibition in vivo at 1.5 %: 1.5% topical twice daily. As for the experimental part:
Luderschmidt et al. describes an animal model for testing whether compounds are capable of modulating sebum secretion, Arch. Derm. Res., 258, 185-191 (1977). This model uses male Syrian hamsters, whose ears contain sebaceous glands. Based on binding data and cellular assay data, selected compounds were chosen for screening in this model. Those compounds included the products of Examples 1, 20, 81, 82, and 109.
Testing for sebum inhibition was carried out in the following manner. Male Syrian hamsters aged 9 to 10 weeks were introduced into the laboratory environment and acclimated for 2 weeks prior to use in the study. Each group consisted of 5 animals and run in parallel with vehicle and positive controls. Prior to administration, a sufficient quantity of each compound was dissolved in 1 mL of a solvent consisting of ethanol, transcutol, and propylene glycol ([…]) to achieve the final concentration specified in Table IV below.
Animals were dosed topically twice daily, five days a week, for 4 weeks. Each dose consisted of 25 micro liters of vehicle control or drug. The dose was applied to the ventral surfaces of both the right and left ears. All animals were sacrificed approximately 18-24 hours after the final dose. The right ears were collected from each animal and used for sebum analysis.
The ears were prepped for HPLC analysis in the following manner. One 8 mm distal biopsy punch was taken, just above the anatomical “V” mark in the ear to normalize the sample area. The punch was pulled apart. The ventral biopsy surface (the area where the topical dose was directly applied to the sebaceous glands) was retained for testing and the dorsal surface of the biopsy punch was discarded.
Tissue samples were blown with N2 gas and stored at −80° C. under nitrogen until HPLC analysis. In addition to ear samples, an aliquot of each drug and vehicle (at least 250 ul) was also stored at −80° C. for inclusion in the HPLC analysis.
HPLC analysis was carried out on an extract of the tissue sample. Tissue samples were contacted with 3 ml of solvent (a 4:1 admixture of 2,2,4-trimethylpentane and isopropyl alcohol). The mixture was shaken for 15 minutes and stored overnight at room temperature, protected from light. The next morning 1 milliliter of water was added to the sample and shaken for 15 minutes. The sample was then centrifuged at approximately 1500 rpm for 15 minutes. Two ml of the organic phase (top layer) was transferred to a glass vial, dried at 37° C., under nitrogen, for approximately 1 hour, and then lyophilized for approximately 48 hours. The samples were then removed from the lyophilizer and each vial was reconstituted with 600 μl of solvent A (trimethylpentane/tetrahydrofuran (99:1)). The samples were then recapped and vortexed for 5 minutes.
Two hundred (200) μl of each sample was then transferred to a pre-labeled 200 μl HPLC vial with 200 μL glass inserts. The HPLC vials were placed in the autosampler tray for the Agilent 1100 series HPLC unit. The Agilent 1100 HPLC system consisted of a thermostated autosampler, a quarternary pump, a column heater, and an A/D interface module. All components were controlled by Agilent ChemStation software. A Waters Spherisorb S3W 4.6×100 mm analytical column was maintained at 30° C. by the Agilent column heater unit.
The HPLC autosampler was programmed to maintain the sample temperature at 20° C. throughout the run.
Ten (10) uL of each sample was injected in triplicate into the column. Two solvents were used for the solvent gradient. Solvent A was an admixture of trimethylpentane and tetrahydrofuran (99:1). Solvent B was ethylacetate. The gradient utilized is described in the table below: […]
The Sedex 75 Evaporative Light Scattering Detector (ELSD) was operated at 45° C. with a gain of 5, and N2 pressure maintained at 3.1 bar. Analog signal obtained by the instrument was sent to the Agilent A/D interface module where it was converted to a digital output. […]

The mark [1] stands for this setting: cholesterol ester vs vehicle control, read-out: % CE reduction.
Setting [2] is: wax ester vs vehicle control, read-out: % WE reduction.

As to `CC(Oc1ccc(C#N)c(C(F)(F)F)c1)c1ccccc1` (racemic) [Example 1, 4-(1-Phenyl-ethoxy)-2-trifluoromethyl-benzonitrile], the inhibition in vivo at 3 % reads like this: under setting [1], 52%; under setting [2], 71%.
On to `CCCC(Oc1ccc(C#N)c(C(F)(F)F)c1)c1cccc(O)c1` (racemic) [Example 14, 4-[1-(3-Hydroxyphenyl)butoxy]-2-(trifluoromethyl)benzonitrile], for which the inhibition in vivo at 3 % by setting is: under setting [1], 18%; under setting [2], 38%.
With `CCCC(Oc1ccc(C#N)c(C(F)(F)F)c1)c1cccc(O)c1` (single isomer, unassigned; (+)) [Example 15, (+)4-[1-(3-Hydroxyphenyl)butoxy]-2-(trifluoromethyl)benzonitrile], the inhibition in vivo at 1 % is, setting by setting: under setting [1], -10%; under setting [2], -13%.
Consider `CC(C)CC(Oc1ccc(C#N)c(C(F)(F)F)c1)c1cccc(O)c1` (single isomer, unassigned; (+)) [Example 21, (+)4-[1-(3-Hydroxyphenyl)-3-methylbutoxy]-2-(trifluoromethyl)benzonitrile], for which the inhibition in vivo at 1 % runs as follows: under setting [1], 7%; under setting [2], 19%.
With `CC(Oc1ccc(C#N)c(C(F)(F)F)c1)c1cncc(O)c1` (single isomer, unassigned; (+)) [Example 74, (+)4-[1-(5-Hydroxypyridin-3-yl)ethoxy]-2-(trifluoromethyl)benzonitrile], the inhibition in vivo at 1 % runs as follows: under setting [1], 21%; under setting [2], 24%.
`CC(Oc1ccc(C#N)c(C(F)(F)F)c1)c1cccc(O)c1` (single isomer, unassigned; (-)) [Example 9, (−)-4-[1-(3-Hydroxyphenyl)ethoxy]-2-(trifluoromethyl)benzonitrile]: the inhibition in vivo at 3 % runs as follows: under setting [1], 38%; under setting [2], 52%.
As for `C=CCC(Oc1ccc(C#N)c(C(F)(F)F)c1)c1cccc(O)c1` (single isomer, unassigned; (-)) [Example 19, (−)4-{[1-(3-Hydroxyphenyl)but-3-enyl]oxy}-2-(trifluoromethyl)benzonitrile], the inhibition in vivo at 1 % under setting [1] was determined as 6% and the inhibition in vivo at 1 % under setting [2] is 13%.
Consider `N#Cc1ccc(OCc2cccc(O)c2)cc1C(F)(F)F` [Example 6, 4-[(3-Hydroxybenzyl)oxy]-2-(trifluoromethyl)benzonitrile], for which the inhibition in vivo at 1.5 % under setting [1] is 25% and the inhibition in vivo at 1.5 % under setting [2] was found to be 40%.
`CCC(Oc1ccc(C#N)c(C(F)(F)F)c1)c1ccccn1` (stereo not drawn) [Example 79, 4-(1-Pyridin^−2-yl-propoxy)-2-trifluoromethyl-benzonitrile]: the inhibition in vivo at 1 % is, setting by setting: under setting [1], 20%; under setting [2], 27%.
`COc1cccc(C(C)Oc2ccc(C#N)c(C(F)(F)F)c2)n1` (stereo not drawn) [Example 80, 4-[1-(6-Methoxy-pyridin-2-yl)-ethoxy]-2-trifluoromethyl-benzonitrile]: the inhibition in vivo at 1 % under setting [1] was found to be 39% and the inhibition in vivo at 1 % under setting [2] came to 50%.
For `CC(C)CC(Oc1ccc(C#N)c(C(F)(F)F)c1)c1cccnc1` (stereo not drawn) [Example 88, 4-(3-Methyl-1-pyridin-3-yl-butoxy)-2-trifluoromethyl-benzonitrile], the inhibition in vivo at 1 % reads like this: under setting [1], 17%; under setting [2], 25%.
In the same order, the values of `Cc1ccc(C(CC(C)C)Oc2ccc(C#N)c(C(F)(F)F)c2)cn1` (stereo not drawn) [Example 89, 4-[3-Methyl-1-(6-methyl-pyridin-3-yl)-butoxy]-2-trifluoromethyl-benzonitrile] are 21% and 35%.

For the origin of these results see US20090170886A1 (Pfizer Inc, priority 2005, published 2009).
